Measurements from US11339171B2, “MDM2 inhibitors” (Gan & Lee Pharmaceuticals, priority 2017, dated 2022).

Assays:
[1] = system: human osteosarcoma cell line SJSA-1; experiment: Inhibition of proliferation of human osteosarcoma cell line SJSA-1 (DAPI staining, In Cell Analyzer); conditions: Homo sapiens, SJSA-1, 72 h, read-out: IC50 (nM), inhibitory activity on proliferation of human osteosarcoma cell line SJSA-1, SJSA-1, incubated 72 h
MDM2 = biological target: T1, MDM2 (Homo sapiens, UniProt Q00987); experiment: Inhibition test of MDM2-P53 (GST-MDM2, Biotin-P53, Anti-GST-Tb, SA-XL665); type: binding
T1 construct: made in house
In short: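 Binding was measured by TR-FRET with GST-MDM2 at 4 nM final in PBS with 0.1% BSA, 5 mM DTT and 1 mM AEBSF. Compounds were tested as twelve-point 5-fold dilutions and incubated with the detection mix for 90 min at 25 °C with shaking before plate-reader reading and curve fitting.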

T1 sequence (Q00987 whole entry): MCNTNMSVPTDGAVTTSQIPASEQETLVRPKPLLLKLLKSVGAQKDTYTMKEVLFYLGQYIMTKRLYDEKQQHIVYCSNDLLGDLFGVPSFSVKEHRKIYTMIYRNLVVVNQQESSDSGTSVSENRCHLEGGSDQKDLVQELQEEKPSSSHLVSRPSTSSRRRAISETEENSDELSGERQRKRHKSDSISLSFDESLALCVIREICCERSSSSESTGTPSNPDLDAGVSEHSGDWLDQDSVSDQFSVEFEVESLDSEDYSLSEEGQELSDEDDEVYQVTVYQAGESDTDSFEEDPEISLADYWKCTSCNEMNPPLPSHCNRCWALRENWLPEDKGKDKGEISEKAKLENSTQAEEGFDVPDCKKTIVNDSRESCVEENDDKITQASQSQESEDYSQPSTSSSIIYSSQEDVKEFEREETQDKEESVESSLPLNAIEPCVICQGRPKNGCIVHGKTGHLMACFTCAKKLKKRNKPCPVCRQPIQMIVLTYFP

CCOc1cc(OC)c(-c2nc3c(n2C(C)C)[C@@]2(C(=O)Nc4cc(Cl)ccc42)N(c2cccc(Cl)c2)C3=O)cn1 [Example S-102, (S)-6-chloro-5′-(3-chlorophenyl)-2′-(6-ethoxy-4-methoxypyridin-3-yl)-3′-isopropyl-3′H-spiro[dihydroindole-3,4′-pyrrolo[3,4-d]imidazole]-2,6′(5′H)-dione]
IC50 [1]: 57.4 nM
IC50 (MDM2): 0.00201 µM

COc1cc(N(C)C)ccc1-c1nc2c(n1C(C)C)[C@@]1(C(=O)Nc3cc(Cl)ccc31)N(c1cccc(Cl)c1)C2=O [Example S-104, (S)-6-chloro-5′-(3-chlorophenyl)-2′-(4-(dimethylamino)-2-methoxyphenyl)-3′-isopropyl-3′H-spiro[dihydroindole-3,4′-pyrrolo[3,4-d]imidazole]-2,6′(5′H)-dione]
IC50 [1]: 266 nM
IC50 (MDM2): 0.00226 µM

CCN(CC)c1ccc(-c2nc3c(n2C(C)C)[C@@]2(C(=O)Nc4cc(Cl)ccc42)N(c2cc(Cl)ccc2C)C3=O)c(OC)c1 [Example S-105, (S)-6-chloro-5′-(5-chloro-2-methylphenyl)-2′-(4-(diethylamino)-2-methoxyphenyl)-3′-isopropyl-3′H-spiro[dihydroindole-3,4′-pyrrolo[3,4-d]imidazole]-2,6′(5′H)-dione]
IC50 [1]: 243 nM
IC50 (MDM2): 0.0112 µM

COc1cc(C2CC2)ncc1-c1nc2c(n1C(C)C)[C@@]1(C(=O)Nc3cc(Cl)ccc31)N(c1cccc(Cl)c1)C2=O [Example S-106, (S)-6-chloro-5′-(3-chlorophenyl)-2′-(6-cyclopropyl-4-methoxypyridin-3-yl)-3′-isopropyl-3′H-spiro[dihydroindole-3,4′-pyrrolo[3,4-d]imidazole]-2,6′(5′H)-dione]
IC50 [1]: 33.5 nM
IC50 (MDM2): 0.00259 µM

CCc1ccc(-c2nc3c(n2C(C)C)[C@@]2(C(=O)Nc4cc(Cl)ccc42)N(c2cccc(Cl)c2)C3=O)c(OC)c1 [Example S-107, (S)-6-chloro-5′-(3-chlorophenyl)-2′-(4-ethyl-2-methoxyphenyl)-3′-isopropyl-3′H-spiro[dihydroindole-3,4′-pyrrolo[3,4-d]imidazole]-2,6′(5′H)-dione]
IC50 [1]: 115 nM
IC50 (MDM2): 0.00455 µM

COc1cc(C2CC2)cc(OC)c1-c1nc2c(n1C(C)C)[C@@]1(C(=O)Nc3cc(Cl)ccc31)N(c1cc(Cl)ccc1C)C2=O [Example S-108, (S)-6-chloro-5′-(5-chloro-2-methylphenyl)-2′-(4-cyclopropyl-2,6-dimethoxyphenyl)-3′-isopropyl-3′H-spiro[dihydroindole-3,4′-pyrrolo[3,4-d]imidazole]-2,6′(5′H)-dione]
IC50 [1]: 28.8 nM
IC50 (MDM2): 0.00887 µM

COc1cc(C)ccc1-c1nc2c(n1C(C)C)[C@@]1(C(=O)Nc3cc(Cl)ccc31)N(c1cccc(Cl)c1)C2=O [Example S-109, (S)-6-chloro-5′-(3-chlorophenyl)-3′-isopropyl-2′-(2-methoxy-4-methylphenyl)-3′H-spiro[dihydroindole-3,4′-pyrrolo[3,4-d]imidazole]-2,6′(5′H)-dione]
IC50 [1]: 54.6 nM
IC50 (MDM2): 0.00234 µM

COc1cc(OC2CC2)ncc1-c1nc2c(n1C(C)C)[C@@]1(C(=O)Nc3cc(Cl)ccc31)N(c1cc(Cl)ccc1C)C2=O [Example S-110, (S)-6-chloro-5′-(5-chloro-2-methylphenyl)-2′-(6-cyclopropoxy-4-methoxypyridin-3-yl)-3′-isopropyl-3′H-spiro[dihydroindole-3,4′-pyrrolo[3,4-d]imidazole]-2,6′(5′H)-dione]
IC50 [1]: 78 nM
IC50 (MDM2): 0.0016 µM

COc1cc(N(C)C)ncc1-c1nc2c(n1C(C)C)[C@@]1(C(=O)Nc3cc(Cl)ccc31)N(c1cc(Cl)ccc1C)C2=O [Example S-111, (S)-6-chloro-5′-(5-chloro-2-methylphenyl)-2′-(6-(dimethylamino)-4-methoxypyridin-3-yl)-3′-isopropyl-3′H-spiro[dihydroindole-3,4′-pyrrolo[3,4-d]imidazole]-2,6′(5′H)-dione]
IC50 [1]: 13 nM
IC50 (MDM2): 0.00152 µM
